Measurements reported in publication PMC10657973 (Journal of Pharmaceutical Analysis, 2023).
Entries after “also recorded” stand apart in the source; their conditions may differ.

Key:
OAT3 [1] = target: T1, OAT3 (Homo sapiens, UniProt Q8TCC7); test: Uptake of UTs in HEK293T-OAT3 cells; format: cell-based; settings: 100 μM, 30 min; for uptake of HSA-bound UT in OAT3-overexpressing cells vs control cells / uptake of free UT in OAT3-overexpressing cells vs control cells: 37 °C; for uptake of HSA-bound UT in OAT3-overexpressing cells vs control cells: with HSA; for uptake of free UT in OAT3-overexpressing cells vs control cells: without HSA
T1 sequence (Q8TCC7 1-542): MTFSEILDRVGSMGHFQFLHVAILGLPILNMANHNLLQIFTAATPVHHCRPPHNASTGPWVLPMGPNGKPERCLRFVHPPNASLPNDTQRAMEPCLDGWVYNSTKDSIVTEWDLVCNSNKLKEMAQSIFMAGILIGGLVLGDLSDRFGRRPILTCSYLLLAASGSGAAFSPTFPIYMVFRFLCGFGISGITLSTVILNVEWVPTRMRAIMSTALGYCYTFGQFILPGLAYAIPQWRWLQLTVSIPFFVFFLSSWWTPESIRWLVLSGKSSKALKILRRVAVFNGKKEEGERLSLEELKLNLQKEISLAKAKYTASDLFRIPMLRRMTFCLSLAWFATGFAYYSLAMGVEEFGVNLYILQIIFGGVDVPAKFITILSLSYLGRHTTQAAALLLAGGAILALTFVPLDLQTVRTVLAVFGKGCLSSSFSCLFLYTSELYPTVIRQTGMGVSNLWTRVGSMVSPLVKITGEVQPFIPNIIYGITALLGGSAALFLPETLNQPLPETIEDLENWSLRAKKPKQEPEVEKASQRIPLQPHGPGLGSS

OAT4 = test: Specificity: uptake in OAT4-overexpressing cells; format: cell-based
MATE2-K = test: Specificity: uptake in MATE2-K-overexpressing cells; format: cell-based; settings: uptake in overexpressing cells vs control, pH 8.0
rMRP4 [2] = format: in vivo, rats
OAT1 [3] = target: T2, OAT1 (Homo sapiens, UniProt Q4U2R8); test: Transport kinetics of UTs in HEK293T-OAT1 cells; format: cell-based
T2 sequence (Q4U2R8 1-563): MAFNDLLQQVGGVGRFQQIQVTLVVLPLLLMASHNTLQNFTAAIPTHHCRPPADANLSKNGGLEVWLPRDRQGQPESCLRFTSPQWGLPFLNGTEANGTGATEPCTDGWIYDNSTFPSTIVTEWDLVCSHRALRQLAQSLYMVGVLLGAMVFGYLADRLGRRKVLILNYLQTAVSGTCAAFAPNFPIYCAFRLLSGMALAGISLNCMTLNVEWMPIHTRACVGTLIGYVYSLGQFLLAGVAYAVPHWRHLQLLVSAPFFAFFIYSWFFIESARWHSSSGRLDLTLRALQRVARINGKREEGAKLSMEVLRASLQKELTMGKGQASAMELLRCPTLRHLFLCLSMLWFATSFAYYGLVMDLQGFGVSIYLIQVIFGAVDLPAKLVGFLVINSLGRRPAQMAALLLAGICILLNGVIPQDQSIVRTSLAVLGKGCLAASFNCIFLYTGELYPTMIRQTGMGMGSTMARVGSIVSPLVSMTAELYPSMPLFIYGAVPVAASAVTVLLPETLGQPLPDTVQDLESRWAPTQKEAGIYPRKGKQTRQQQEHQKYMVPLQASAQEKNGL

rOATs = rOATs inhibition experiment
MRP4 = test: Intracellular accumulation of UTs in MRP4-overexpressing cells; format: cell-based, human; settings: 100 μM, 30 min
OAT1 [4] = target: T2, OAT1; test: Uptake of UTs in HEK293T-OAT1 cells; format: cell-based; settings: 100 μM, 30 min; for uptake of HSA-bound UT in OAT1-overexpressing cells vs control cells / uptake of free UT in OAT1-overexpressing cells vs control cells: 37 °C; for uptake of HSA-bound UT in OAT1-overexpressing cells vs control cells: with HSA; for uptake of free UT in OAT1-overexpressing cells vs control cells: without HSA
OAT2 = test: Specificity: uptake in OAT2-overexpressing cells; format: cell-based; settings: uptake in overexpressing cells vs control
PEPT2 = test: Specificity: uptake in PEPT2-overexpressing cells; format: cell-based; settings: uptake in overexpressing cells vs control
OAT3 [5] = target: T1, OAT3; test: Transport kinetics of UTs in HEK293T-OAT3 cells; format: cell-based; settings: read-out: Km of OAT3-mediated uptake; HEK293T-OAT3, Michaelis-Menten
P-gp = test: Specificity: uptake in P-gp-overexpressing cells; format: cell-based; settings: uptake in overexpressing cells vs control, 4 mM ATP
URAT1 = test: Specificity: uptake in URAT1-overexpressing cells; format: cell-based; settings: uptake in overexpressing cells vs control
MATE1 = test: Specificity: uptake in MATE1-overexpressing cells; format: cell-based; settings: uptake in overexpressing cells vs control, pH 8.0
OCT2 = test: Specificity: uptake in OCT2-overexpressing cells; format: cell-based; settings: uptake in overexpressing cells vs control
OATP4C1 = test: Specificity: uptake in OATP4C1-overexpressing cells; format: cell-based; settings: uptake in overexpressing cells vs control
rOAT1/3 = test: rOAT1/3−/− rat experiment; format: in vivo, rats
rMRP4 [6] = format: in vivo, rats; remark: listed apart in the source
[7] = Correlation between biomarkers and cefmetazole pharmacokinetics in rats; format: in vivo
MRP2 = test: Accumulation of kynurenic acid in MRP2-overexpressing cells; format: cell-based; settings: Fig. S15
[8] = tested on: OAT1/3 and MRP4 double-transfected MDCK cells; settings: 37 °C
[9] = format: in vivo, rats

O=C(O)CNC(=O)C=Cc1ccccc1 [N-(cinnamoyl)glycine]
uptake at 4 °C in OAT3-overexpressing cells vs control (OAT3 [1]): not significantly different | uptake of HSA-bound UT in OAT3-overexpressing cells vs control cells (OAT3 [1]): dramatically increased | uptake of free UT in OAT3-overexpressing cells vs control cells (OAT3 [1]): dramatically increased; also recorded: significantly elevated | transport mediated by OAT4 / uptake in OAT4-overexpressing cells vs control (OAT4): not mediated | transport mediated by MATE2-K (MATE2-K): not mediated | cumulative urinary excretion in rats treated with MK-571 vs control (rMRP4 [2]; MK-571 (CMPF effect at 20 mg/kg)): not affected | Km (OAT1 [3]; read-out: Km of OAT1-mediated uptake, HEK293T-OAT1, Michaelis-Menten): 4.26 mM | cumulative urinary excretion in rats treated with PROB vs control (rOATs; 12 h urine): no significant effects | serum level in vivo (detectability by LC-MS/MS) (rOATs; rats / in vivo): below the detection limit | uptake at 4 °C in MRP4-overexpressing cells vs control (MRP4): not significantly different | intracellular accumulation in MRP4-overexpressing cells vs control cells (MRP4; 37 °C, 4 mM ATP): significantly decreased; also recorded: markedly reduced | uptake at 4 °C in OAT1-overexpressing cells vs control (OAT1 [4]): not significantly different | uptake of HSA-bound UT in OAT1-overexpressing cells vs control cells (OAT1 [4]): dramatically increased | uptake of free UT in OAT1-overexpressing cells vs control cells (OAT1 [4]): dramatically increased; also recorded: significantly elevated | transport mediated by OAT2 (OAT2): not mediated | transport mediated by PEPT2 (PEPT2): not mediated | Km (OAT3 [5]): 2.98 mM | transport mediated by P-gp (P-gp): not mediated | transport mediated by URAT1 (URAT1): not mediated | transport mediated by MATE1 (MATE1): not mediated | transport mediated by OCT2 (OCT2): not mediated | transport mediated by OATP4C1 (OATP4C1): not mediated | cumulative excretion, WT rats (rOAT1/3; first value of the printed pair, taken as WT, 12-h urine): 16.16 ± 5.27 | cumulative excretion, rOAT1/3−/− rats (rOAT1/3; second value of the pair, taken as knockout, 12-h urine): 8.56 ± 3.43

O=C(O)c1cc(=O)c2ccccc2[nH]1 [Kynurenic acid, kynurenic acid]
uptake at 4 °C in OAT3-overexpressing cells vs control (OAT3 [1]): no significant difference | uptake of HSA-bound UT in OAT3-overexpressing cells vs control cells (OAT3 [1]): dramatically increased | uptake of free UT in OAT3-overexpressing cells vs control cells (OAT3 [1]): dramatically increased; also recorded: significantly higher | transport mediated by OAT4 / uptake in OAT4-overexpressing cells vs control (OAT4): not mediated | levels in renal tissues in rats treated with MK-571 vs control (rMRP4 [2]; MK-571 5, 10, 20 mg/kg oral, 7 days): significantly increased | linear uptake time (OAT1 [3]; HEK293T-OAT1/3 cells, 100 μM): 0 to 10 min | serum levels in rats treated with PROB vs control (rOATs; PROB 30, 60, 120 mg/kg oral, 7 days): increased | uptake at 4 °C in MRP4-overexpressing cells vs control (MRP4): no significant difference | uptake at 4 °C in OAT1-overexpressing cells vs control (OAT1 [4]): no significant difference | uptake of HSA-bound UT in OAT1-overexpressing cells vs control cells (OAT1 [4]): dramatically increased | uptake of free UT in OAT1-overexpressing cells vs control cells (OAT1 [4]): dramatically increased; also recorded: significantly higher | efflux from hepatocytes into the blood after rMRP4−/− (rMRP4 [6]; Fig. S9): hindered | renal clearance rate in rMRP4−/− rats vs WT (rMRP4 [6]; rat, in vivo): did not change significantly | renal tissue concentration in rMRP4−/− rats vs WT (rMRP4 [6]; rat, in vivo): unaffected | serum levels in rMRP4−/− rats vs WT (rMRP4 [6]; rat, in vivo): did not change significantly | plasma concentrations in rats treated with PROB ([7]; PROB 60 and 120 mg/kg 7 days, cefmetazole 100 mg/kg i.v.): increased | correlation of cmax with cefmetazole ([7]; WT and rOAT1/3−/− rats): moderate | plasma level in rOAT1/3−/− rats vs WT rats ([7]; rat, in vivo): markedly increased | substrate of MRP2 (MRP2): potential substrate of MRP2 | transport mediated by P-gp (P-gp): not mediated | uptake at 37 °C in OAT3-MRP4 cells vs double control cells [8]: significantly increased | half-life ([9]; rat, urine, iv, 2 mg/kg): 3.7 ± 0.7 h | rate of metabolism to (d4-)xanthurenic acid in vivo ([9]; rats, d5-kynurenic acid 2 mg/kg i.v.): < 12% | renal clearance rate in rOAT1/3−/− rats vs WT (rOAT1/3; rat, in vivo): significantly decreased | serum levels in rOAT1/3−/− rats vs WT (rOAT1/3; rat, in vivo): significantly increased
